Data from patent publication US12486290B2, “Isoindolinone and indazole compounds for the degradation of EGFR” (C4 THERAPEUTICS, INC., priority 2019, dated 2025).

Experiments:
Type in all cases: cell-based
[1] = target: T1, EGFR L858R (NCI-H3255 cells) (Homo sapiens, UniProt P00533, L858R); test: EGFR (L858R) degradation analysis, Total EGFR (L858R) HTRF, NCI-H3255 cells; settings: 6 hours
T1 construct: NCI-H3255 (harboring EGFR heterozygous L858R mutation); host or cells: NCI-H3255
Summary of the method: (§1)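 Cells (10000/well NCI-H1975 and NCI-H1975+CS, 1000/well NCI-H3255) treated with 11-point half-log titrations from 10 μM top, in duplicate, for 6 hours at 37° C., 5% CO2. Total EGFR (L858R) quantified by HTRF FRET; untreated cells as negative and cell-free wells as positive control.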

[2] = target: T2, EGFR T790M/L858R (NCI-H1975 cells) (Homo sapiens, UniProt P00533, L858R/T790M); test: EGFR (L858R) degradation analysis, Total EGFR (L858R) HTRF, NCI-H1975 cells; settings: 6 hours
T2 construct: NCI-H1975 (harboring EGFR heterozygous T790M/L858R mutations); host or cells: NCI-H1975
Summary of the method: as §1

[3] = target: T3, EGFR T790M/L858R/C797S (NCI-H1975+CS cells) (Homo sapiens, UniProt P00533, C797S/L858R/T790M); test: EGFR (L858R) degradation analysis, Total EGFR (L858R) HTRF, NCI-H1975+CS cells; settings: 6 hours, read-out: H1975 C797S clone EGFR DC50
T3 construct: NCI-H1975+CS (harboring EGFR heterozygous T/790M/L858R/C797S mutations) was generated using CRISPR technology; host or cells: NCI-H1975+CS (CRISPR-edited NCI-H1975)
Text: NCI-H1975 (harboring EGFR heterozygous T790M/L858R mutations) and NCI-H3255 (harboring EGFR heterozygous L858R mutation) were purchased from ATCC and NCI, respectively. NCI-H1975+CS (harboring EGFR heterozygous T/790M/L858R/C797S mutations) was generated using CRISPR technology to introduce the additional C797S mutation by Horizon Discovery. RPMI 1640 no-phenol red medium and fetal bovine serum (FBS) were purchased from Gibco (Grand Island, NY, USA). Cell culture flasks and 384-well microplates were acquired from VWR (Radnor, PA, USA). Total EGFR (L858R) HTRF assay kits were purchased from Cisbio (Bedford, MA, USA).
Degradation of EGFR protein containing L858R mutation was determined based on quantification of FRET signal using Total EGFR (L858R) HTRF assay kit. Test compounds were added to the 384-well plate from a top concentration of 10 μM with 11 points, half log titration in duplicates. NCI-H1975, NCI-H1975+CS or NCI-H3255 cells were added into 384-well plates at a cell density of 10000, 10000 or 1000 cells per well, respectively. The plates were kept at 37° C. with 5% CO2 for 6 hours. Cells treated in the absence of the test compound were the negative control. Positive control was set by wells containing all reagents but no cells. FRET signal was acquired on EnVision™ Multilabel Reader (PerkinElmer, Santa Clara, CA, USA).

T2 sequence (P00533 25-1210 T790M/L858R): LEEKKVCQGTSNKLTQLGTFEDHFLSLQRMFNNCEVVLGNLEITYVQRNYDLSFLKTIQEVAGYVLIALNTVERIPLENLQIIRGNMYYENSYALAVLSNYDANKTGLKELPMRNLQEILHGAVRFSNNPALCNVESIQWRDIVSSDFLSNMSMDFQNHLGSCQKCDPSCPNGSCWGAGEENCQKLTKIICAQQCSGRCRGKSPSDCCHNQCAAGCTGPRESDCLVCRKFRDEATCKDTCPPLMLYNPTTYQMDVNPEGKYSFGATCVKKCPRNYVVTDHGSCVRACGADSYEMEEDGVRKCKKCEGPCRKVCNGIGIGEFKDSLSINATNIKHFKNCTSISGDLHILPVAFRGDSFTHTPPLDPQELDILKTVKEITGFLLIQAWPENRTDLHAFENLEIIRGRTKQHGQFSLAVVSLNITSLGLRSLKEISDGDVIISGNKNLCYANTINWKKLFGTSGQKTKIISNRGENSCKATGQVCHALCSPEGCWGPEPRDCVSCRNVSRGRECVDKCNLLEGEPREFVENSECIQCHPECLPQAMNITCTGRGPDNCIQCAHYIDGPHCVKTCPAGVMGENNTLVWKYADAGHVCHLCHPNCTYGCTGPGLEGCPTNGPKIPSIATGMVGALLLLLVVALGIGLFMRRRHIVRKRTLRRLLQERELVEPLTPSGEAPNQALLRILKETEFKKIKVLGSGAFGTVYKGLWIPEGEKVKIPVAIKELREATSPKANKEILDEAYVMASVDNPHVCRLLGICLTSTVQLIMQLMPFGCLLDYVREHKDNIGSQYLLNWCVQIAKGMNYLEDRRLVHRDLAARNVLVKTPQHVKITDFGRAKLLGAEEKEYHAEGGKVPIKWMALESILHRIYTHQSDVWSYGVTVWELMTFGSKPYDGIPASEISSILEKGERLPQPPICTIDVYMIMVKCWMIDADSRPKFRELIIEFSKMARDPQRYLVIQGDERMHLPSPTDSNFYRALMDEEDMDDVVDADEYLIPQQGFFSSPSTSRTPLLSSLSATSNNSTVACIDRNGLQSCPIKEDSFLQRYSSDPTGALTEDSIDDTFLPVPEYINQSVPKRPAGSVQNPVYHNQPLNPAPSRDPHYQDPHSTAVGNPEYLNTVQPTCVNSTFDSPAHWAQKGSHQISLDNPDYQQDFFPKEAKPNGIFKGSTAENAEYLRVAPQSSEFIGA
T3 sequence (P00533 25-1210 T790M/C797S/L858R): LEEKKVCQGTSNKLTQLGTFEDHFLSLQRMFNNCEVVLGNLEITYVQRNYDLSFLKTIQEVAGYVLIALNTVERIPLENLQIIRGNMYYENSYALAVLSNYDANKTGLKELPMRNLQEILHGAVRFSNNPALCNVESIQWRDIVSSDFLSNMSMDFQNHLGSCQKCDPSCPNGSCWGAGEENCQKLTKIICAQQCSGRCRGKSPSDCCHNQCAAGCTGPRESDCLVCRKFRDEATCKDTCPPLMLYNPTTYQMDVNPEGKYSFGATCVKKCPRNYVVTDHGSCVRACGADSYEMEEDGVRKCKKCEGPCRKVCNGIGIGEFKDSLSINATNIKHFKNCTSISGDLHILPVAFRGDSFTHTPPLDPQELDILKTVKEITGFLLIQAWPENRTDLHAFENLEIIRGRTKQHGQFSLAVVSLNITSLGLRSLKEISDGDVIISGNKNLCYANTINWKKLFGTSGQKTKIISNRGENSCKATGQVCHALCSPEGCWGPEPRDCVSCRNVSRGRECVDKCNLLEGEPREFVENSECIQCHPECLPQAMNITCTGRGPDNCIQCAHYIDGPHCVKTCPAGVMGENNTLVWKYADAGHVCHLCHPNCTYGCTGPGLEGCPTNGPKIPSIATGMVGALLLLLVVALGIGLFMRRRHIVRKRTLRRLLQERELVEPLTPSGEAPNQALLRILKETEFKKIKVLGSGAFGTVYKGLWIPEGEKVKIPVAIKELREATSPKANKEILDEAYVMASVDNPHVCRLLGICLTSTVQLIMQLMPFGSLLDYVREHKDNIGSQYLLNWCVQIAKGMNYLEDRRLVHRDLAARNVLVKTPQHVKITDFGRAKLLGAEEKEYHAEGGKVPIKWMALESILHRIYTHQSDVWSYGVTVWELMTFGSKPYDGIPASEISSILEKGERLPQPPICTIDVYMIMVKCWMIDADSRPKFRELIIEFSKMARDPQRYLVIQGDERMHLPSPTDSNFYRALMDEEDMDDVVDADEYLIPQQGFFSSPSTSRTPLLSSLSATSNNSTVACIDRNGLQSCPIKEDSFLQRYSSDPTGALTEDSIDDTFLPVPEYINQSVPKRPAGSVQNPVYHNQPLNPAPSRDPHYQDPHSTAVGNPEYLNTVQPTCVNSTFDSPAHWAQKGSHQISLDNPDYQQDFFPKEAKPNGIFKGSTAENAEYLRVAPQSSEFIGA
T1 sequence (P00533 25-1210 L858R): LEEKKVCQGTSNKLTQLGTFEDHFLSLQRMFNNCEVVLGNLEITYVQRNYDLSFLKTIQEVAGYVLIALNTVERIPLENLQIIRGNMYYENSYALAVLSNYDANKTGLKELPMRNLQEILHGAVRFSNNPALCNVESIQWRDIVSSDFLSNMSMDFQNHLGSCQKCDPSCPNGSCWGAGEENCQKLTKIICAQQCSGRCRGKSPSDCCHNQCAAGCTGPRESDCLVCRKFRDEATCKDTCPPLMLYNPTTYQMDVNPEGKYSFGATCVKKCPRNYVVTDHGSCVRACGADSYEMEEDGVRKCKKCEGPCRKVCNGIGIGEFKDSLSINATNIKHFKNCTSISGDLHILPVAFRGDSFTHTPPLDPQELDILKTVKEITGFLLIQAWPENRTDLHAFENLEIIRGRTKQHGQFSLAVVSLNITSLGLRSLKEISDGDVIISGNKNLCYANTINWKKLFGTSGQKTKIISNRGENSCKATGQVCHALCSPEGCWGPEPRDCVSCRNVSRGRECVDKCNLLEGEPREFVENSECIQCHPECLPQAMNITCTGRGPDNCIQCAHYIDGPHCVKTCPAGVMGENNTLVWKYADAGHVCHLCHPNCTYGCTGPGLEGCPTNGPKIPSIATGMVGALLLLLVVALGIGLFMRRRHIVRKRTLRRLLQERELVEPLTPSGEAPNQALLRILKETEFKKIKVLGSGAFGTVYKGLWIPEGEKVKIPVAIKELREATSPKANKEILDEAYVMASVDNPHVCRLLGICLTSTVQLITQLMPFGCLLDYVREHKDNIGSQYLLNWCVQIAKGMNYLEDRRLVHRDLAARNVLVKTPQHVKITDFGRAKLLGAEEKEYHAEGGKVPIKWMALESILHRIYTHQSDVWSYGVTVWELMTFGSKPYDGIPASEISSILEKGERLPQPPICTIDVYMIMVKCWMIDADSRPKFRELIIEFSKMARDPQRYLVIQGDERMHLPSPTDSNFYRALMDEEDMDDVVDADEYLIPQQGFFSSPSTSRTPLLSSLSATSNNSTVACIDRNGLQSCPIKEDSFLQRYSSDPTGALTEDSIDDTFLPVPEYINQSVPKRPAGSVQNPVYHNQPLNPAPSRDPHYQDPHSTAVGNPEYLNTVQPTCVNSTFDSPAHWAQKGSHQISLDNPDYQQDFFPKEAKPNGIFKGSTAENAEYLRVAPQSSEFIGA

| SMILES | DC50 [1] [nM] | DC50 [2] [nM] | DC50 [3] [nM] |
| --- | --- | --- | --- |
| O=C1CCC(Nc2ccc(C3CCN(CC(=O)N4CCC(Oc5ccc(-c6cc(F)c7c(c6)C(=O)N(C(C(=O)Nc6nccs6)c6ncn8c6CCC8)C7)cc5)CC4)CC3)c(F)c2)C(=O)N1 (stereo not drawn) [Compound 35, 2-(6,7-dihydro-5H-pyrrolo[1,2-c]imidazol-1-yl)-2-(6-(4-((1-(2-(4-(4-((2,6-dioxopiperidin-3-yl)amino)-2-fluorophenyl)piperidin-1-yl)acetyl)piperidin-4-yl)oxy)phenyl)-4-fluoro-1-oxoisoindolin-2-yl)-N-(thiazol-2-yl)acetamide] | 9 | 46 | 12 |
| N#Cc1cc(NC2CCC(=O)NC2=O)ccc1C1CCN(CC(=O)N2CCC(Oc3ccc(-c4cc(F)c5c(c4)C(=O)N(C(C(=O)Nc4nccs4)c4ncn6c4CCC6)C5)cc3)CC2)CC1 (stereo not drawn) [Compound 37, 2-(6-(4-((1-(2-(4-(2-cyano-4-((2,6-dioxopiperidin-3-yl)amino)phenyl)piperidin-1-yl)acetyl)piperidin-4-yl)oxy)phenyl)-4-fluoro-1-oxoisoindolin-2-yl)-2-(6,7-dihydro-5H-pyrrolo[1,2-c]imidazol-1-yl)-N-(thiazol-2-yl)acetamide] | 16 | 46 | 19 |
| O=C1CC[C@H](Nc2ccc(C3CCN(CC(=O)N4CCN(c5ccc(-c6cc(F)c7c(c6)C(=O)N(C(C(=O)Nc6nccs6)c6ncn8c6C[C@@H](F)C8)C7)cc5)CC4)CC3)c(F)c2)C(=O)N1 (stereo partly drawn) [Compound 44, 2-[6-[4-[4-[2-[4-[4-[[(3S)-2,6-dioxo-3-piperidyl]amino]-2-fluoro-phenyl]-1-piperidyl]acetyl]piperazin-1-yl]phenyl]-4-fluoro-1-oxo-isoindolin-2-yl]-2-[(6R)-6-fluoro-6,7-dihydro-5H-pyrrolo[1,2-c]imidazol-1-yl]-N-thiazol-2-yl-acetamide] | 6 | 22 | 12 |
| O=C1CCC(Nc2ccc(C3CCN(CC(=O)N4CC5(C4)CN(c4ccc(-c6cc(F)c7c(c6)C(=O)N(C(C(=O)Nc6nccs6)c6ncn8c6CCC8)C7)cc4)C5)CC3)cc2)C(=O)N1 (stereo not drawn) [Compound 47, 2-(6,7-dihydro-5H-pyrrolo[1,2-c]imidazol-1-yl)-2-[6-[4-[2-[2-[4-[4-[(2,6-dioxo-3-piperidyl)amino]phenyl]-1-piperidyl]acetyl]-2,6-diazaspiro[3.3]heptan-6-yl]phenyl]-4-fluoro-1-oxo-isoindolin-2-yl]-N-thiazol-2-yl-acetamide] | 10 | 18 | 9 |
| O=C1CC[C@H](Nc2ccc(C3CCN(CC(=O)N4CC5(C4)CN(c4ccc(-c6cc(F)c7c(c6)C(=O)N(C(C(=O)Nc6nccs6)c6ncn8c6CCC8)C7)cc4)C5)CC3)c(F)c2)C(=O)N1 (stereo partly drawn) [Compound 48, 2-(6,7-dihydro-5H-pyrrolo[1,2-c]imidazol-1-yl)-2-[6-[4-[2-[2-[4-[4-[[(3S)-2,6-dioxo-3-piperidyl]amino]-2-fluoro-phenyl]-1-piperidyl]acetyl]-2,6-diazaspiro[3.3]heptan-6-yl]phenyl]-4-fluoro-1-oxo-isoindolin-2-yl]-N-thiazol-2-yl-acetamide] | 7 | 28 | 11 |
| O=C1CCC(Nc2ccc(C3CCN(CC(=O)N4CCN(Cc5ccc(-c6cc(F)c7c(c6)C(=O)N(C(C(=O)Nc6nccs6)c6ncn8c6CCC8)C7)cc5)CC4)CC3)c(F)c2)C(=O)N1 (stereo not drawn) [Compound 57, 2-(6,7-dihydro-5H-pyrrolo[1,2-c]imidazol-1-yl)-2-[6-[4-[[4-[2-[4-[4-[(2,6-dioxo-3-piperidyl)amino]-2-fluoro-phenyl]-1-piperidyl]acetyl]piperazin-1-yl]methyl]phenyl]-4-fluoro-1-oxo-isoindolin-2-yl]-N-thiazol-2-yl-acetamide] | 11 | 46 | 7 |
| O=C1CC[C@H](Nc2ccc(C3CCN(CC(=O)N4CCN(Cc5ccc(-c6cc(F)c7c(c6)C(=O)N(C(C(=O)Nc6nccs6)c6ncn8c6CCC8)C7)cc5)CC4)CC3)c(F)c2)C(=O)N1 (stereo partly drawn) [Compound 58, 2-(6,7-dihydro-5H-pyrrolo[1,2-c]imidazol-1-yl)-2-[6-[4-[[4-[2-[4-[4-[[(3S)-2,6-dioxo-3-piperidyl]amino]-2-fluoro-phenyl]-1-piperidyl]acetyl]piperazin-1-yl]methyl]phenyl]-4-fluoro-1-oxo-isoindolin-2-yl]-N-thiazol-2-yl-acetamide] | 26 | 26 | 14 |
| O=C1CC[C@H](Nc2ccc(C3CCN(C(=O)CN4CCN(Cc5ccc(-c6cc(F)c7c(c6)C(=O)N(C(C(=O)Nc6nccs6)c6ncn8c6CCC8)C7)cc5)CC4)CC3)c(F)c2)C(=O)N1 (stereo partly drawn) [Compound 59, 2-(6,7-dihydro-5H-pyrrolo[1,2-c]imidazol-1-yl)-2-[6-[4-[[4-[2-[4-[4-[[(3S)-2,6-dioxo-3-piperidyl]amino]-2-fluoro-phenyl]-1-piperidyl]-2-oxo-ethyl]piperazin-1-yl]methyl]phenyl]-4-fluoro-1-oxo-isoindolin-2-yl]-N-thiazol-2-yl-acetamide] | 12 | 19 | 8 |
